# Where two headings read alike, the source gives them in different places.
# Key:
# [1] = test system: 501mel melanoma xenografts; conditions: 1.2 mg/kg intravenous
# Protocol: (§1) Female athymic nu/nu mice (Harlan Laboratories Models, S.L. Barcelona, Spain or Envigo, Spain) were utilized for all experiments. Animal were housed in individually ventilated cages Sealsafe® Plus, Techmplast S.P.A.), up to ten per cage on a 12-hour light-dark cycle at 21-23 °C and 40-60 % humidity. Mice were allowed free access to irradiated standard rodent diet (Tecklad 2914C) and sterilized water. Animals were acclimated for at least 5 days prior to tumor implantation with a tumor cell suspension.
# (§2) The cell line used are: • 501mel • IGR-37 • SK-Mel-28 • WM-266-4 • LOX-IMVI • 501mel^Vemur
# (§3) In xenograft studies with cell lines: • Tumour volume was calculated using the equation […], where a: length (longest diameter) and b: width (shortest diameter) were measured in mm by using digital caliper (Fowler Sylvac, S235PAT). Tumour dimensions and body weights were recorded 2-3 times per week starting from the first day of treatment. • When tumors reached ca. 150-250 mm^3, tumour bearing animals (N = 8-10/group) were randomly allocated into the treatment groups, based on body weight and tumour measurements by using NewLab Oncology Software (version 2.25.06.00). • Comparison between median tumour volume of treated and placebo groups was used for evaluation of the antitumoural efficacy. • Animals were euthanized when their tumours reached ca. 1,500 mm^3 and/or severe necrosis was seen.
# (§4) Treatments producing >20 % lethality and/or 20% net body weight loss were considered toxic.
# (§5) In these experiments, PM14 and Compound IA, as well as placebo, were intravenously administered once per week for 3 consecutive weeks, on days 0, 7 and 14, whenever it was possible.
# Table 4. Tumour volume evaluation in 501mel melanoma xenografts with PM14 and Compound IA and placebo.
# [2] = test system: Hermes3A; assay: Cell viability assay (PrestoBlue), 72h
# Protocol: (§6) Cells were grown at 37°C in 5% CO2 (10% for Hermes 3A) and were regularly checked for mycoplasma contamination. […] Melanoma IGR cell lines (IGR37 and IGR39) were grown in RPMI w/o HEPES (Gibco, Invitrogen) supplemented with 15% FCS and gentamycin.
# (§7) To determine the IC50 (half maximal inhibitory concentration) of these cells to various inhibitors, cell viability assays were performed.
# (§8) After 72h of treatment with different concentrations of the compounds, cells were treated with PrestoBlue reagent according to the manufacturer's instructions. The absorbance per well was measured with a Cellinsight CX5 microplate reader. Data were analyzed using Prism9 statistical software.
# [3] = test system: 501mel; assay: Cell viability assay (PrestoBlue), 72h; conditions: Homo sapiens
# Protocol: (§9) Cells were grown at 37°C in 5% CO2 (10% for Hermes 3A) and were regularly checked for mycoplasma contamination. […] Melanoma cell lines 501mel and SKmel28 were grown in RPMI w/o HEPES (Gibco, Invitrogen) supplemented with 10% FCS and gentamycin. Vemurafenib-resistant cells (501melVemuR and MM074VemuR) were additionally supplemented with 1.5 µM of vemurafenib. Melanoma IGR cell lines (IGR37 and IGR39) were grown in RPMI w/o HEPES (Gibco, Invitrogen) supplemented with 15% FCS and gentamycin.
# as §7, §8
# [4] = test system: Sk-mel-28 melanoma xenografts; conditions: 1.2 mg/kg intravenous
# Protocol: as §1, §2, §3, §4, §5
# Table 6. Tumour volume evaluation in Sk-mel-28 melanoma xenografts with PM14 and Compound IA and placebo.
# [5] = test system: MM099; assay: Cell viability assay (PrestoBlue), 72h; conditions: Homo sapiens
# Protocol: as §6, §7, §8
# [6] = test system: MM074 melanospheres; assay: Melanosphere apoptosis (AnnexinV-APC / propidium iodide); format: cell-based, human; conditions: 72h
# Protocol: MM074 proliferative/differentiated cell line were seeded (5×10^4 cells) in ultra-low attachment hydrogel-layered 96 well plates in KO DMEM medium supplemented with 20% KSR, AANE, 2 mM Glutamax, Penicillin/Streptomycin and 100 uM Beta-mercaptoethanol. To allow for melanosphere formation, cells were left to grow for 4 days before drug treatment.
# For apoptosis assays with 3D-grown melanoma cells, TrypLe Select 10x reagent (Gibco) was used to dissociate melanospheres to obtain single-cell suspensions. These cells were incubated with AnnexinV-APC (Biolegend) and Propidium Iodide (PI, Biolegend). With bivariant dot plots, it was distinguished between viable (AnnexinV-/PI-), early apoptotic (AnnexinV+/PI-), late apoptotic (AnnexinV+/PI+) and necrotic cells (AnnexinV-/PI+).
# [7] = test system: MM117; assay: Cell viability assay (PrestoBlue), 72h; conditions: Homo sapiens
# Protocol: as §9, §7, §8
# [8] = test system: MM074^VemuR; assay: Cell viability assay (PrestoBlue), 72h; conditions: Homo sapiens
# Protocol: Cells were grown at 37°C in 5% CO2 (10% for Hermes 3A) and were regularly checked for mycoplasma contamination. MM patient-derived short-term melanoma cultures (MM011, MM074, MM117, MM029, MM047, MM099) were grown in HAM-F10 (Gibco, Invitrogen) supplemented with 10% Fetal Calf Serum (FCS), 25 mM HEPES, 5.2 mM GLUTAMAX and penicillin-streptomycin. Melanoma cell lines 501mel and SKmel28 were grown in RPMI w/o HEPES (Gibco, Invitrogen) supplemented with 10% FCS and gentamycin. Vemurafenib-resistant cells (501melVemuR and MM074VemuR) were additionally supplemented with 1.5 µM of vemurafenib. Melanoma IGR cell lines (IGR37 and IGR39) were grown in RPMI w/o HEPES (Gibco, Invitrogen) supplemented with 15% FCS and gentamycin.
# as §7, §8
# [9] = test system: 501 mel^Vemur cell line; conditions: 1.2 mg/kg intravenous
# Protocol: as §1, §2, §3, §4, §5
# [10] = test system: melanoma cells; assay: Cell proliferation by CellTrace Violet flow cytometry; format: cell-based, human; conditions: IC50 concentrations, compared to DMSO
# Protocol: After 48h of incubation, cells were rinsed and incubated with AnnexinV-APC (BD Biosciences). Cell proliferation and apoptosis were detected on a BD LSRFortessaTM Flow Cytometer. Data were analyzed with FlowJo software. To define slow proliferating or apoptotic cells: it was considered that slow proliferating cells represented the 30% of cells with the highest concentration of CellTrace Violet signal in the DMSO control. […] For apoptotic cells, it was considered the 20% of cells with the highest signal of AnnexinV-APC in the DMSO control.
# [11] = test system: all melanoma cells; assay: Cell viability assay (PrestoBlue), summary over all melanoma cells; format: cell-based; conditions: Homo sapiens, read-out: IC50 values
# [12] = test system: MM011; assay: Cell viability assay (PrestoBlue), 72h; conditions: Homo sapiens
# Protocol: as §9, §7, §8
# [13] = test system: SKMEL-28; assay: Cell viability assay (PrestoBlue), 72h; conditions: Homo sapiens, SK-MEL-28, 72 h
# Protocol: as §9, §7, §8
# [14] = test system: xenografts with various melanoma cell lines; conditions: different xenografts, 1.2 mg/kg intravenous once per week for 3 weeks
# Protocol: as §1, §2
# as §3, with “seen. […]” for “seen.”
compound,measurement,setting,value
COc1c(C)cc2c(c1O)[C@@H]1[C@@H]3[C@@H]4SC[C@]5(N[C@H](CO)Cc6c5oc5ccccc65)C(=O)OC[C@@H](c5c6c(c(C)c(OC(C)=O)c54)OCO6)N3[C@@H](O)[C@H](C2)N1C [Compound IA],Median Tumour Volume,"[1]; days 0, 7 and 14, day 0",158.5 mm^3
same,Median Tumour Volume,"[1]; days 0, 7 and 14, day 3",208.3 mm^3
same,Median Tumour Volume,"[1]; days 0, 7 and 14, day 5",279.8 mm^3
same,Median Tumour Volume,"[1]; days 0, 7 and 14, day 7",328.5 mm^3
same,Median Tumour Volume,"[1]; days 0, 7 and 14, day 10",455.2 mm^3
same,Median Tumour Volume,"[1]; days 0, 7 and 14, day 12",614.1 mm^3
same,Median Tumour Volume,"[1]; days 0, 7 and 14, day 14",749.8 mm^3
same,Median Tumour Volume,"[1]; days 0, 7 and 14, day 17",913 mm^3
same,Median Tumour Volume,"[1]; days 0, 7 and 14, day 19","1,233 mm^3"
same,Median Tumour Volume,"[1]; days 0, 7 and 14, day 21","1,341.4 mm^3"
same,Median Tumour Volume,"[1]; days 0, 7 and 14, day 24","1,581.4 mm^3"
same,sensitivity of non-cancerous Hermes3A immortalized melanocytes compared with the melanoma cells,[2]; Hermes3A versus melanoma cells,less sensitive
same,IC50,"[2]; Homo sapiens, Melanocyte, 72 h",4.93 nM
same,IC50,[3],1.74 nM
same,Median Tumour Volume,"[4]; days 0, 7 and 14, day 0",152.3 mm^3
same,Median Tumour Volume,"[4]; days 0, 7 and 14, day 2",179.8 mm^3
same,Median Tumour Volume,"[4]; days 0, 7 and 14, day 4",232.7 mm^3
same,Median Tumour Volume,"[4]; days 0, 7 and 14, day 7",302 mm^3
same,Median Tumour Volume,"[4]; days 0, 7 and 14, day 9",397.8 mm^3
same,Median Tumour Volume,"[4]; days 0, 7 and 14, day 11",476.6 mm^3
same,Median Tumour Volume,"[4]; days 0, 7 and 14, day 14",551.1 mm^3
same,Median Tumour Volume,"[4]; days 0, 7 and 14, day 16",585.8 mm^3
same,Median Tumour Volume,"[4]; days 0, 7 and 14, day 18",676.6 mm^3
same,Median Tumour Volume,"[4]; days 0, 7 and 14, day 21",748.7 mm^3
same,Median Tumour Volume,"[4]; days 0, 7 and 14, day 23",866.2 mm^3
same,Median Tumour Volume,"[4]; days 0, 7 and 14, day 25",906.6 mm^3
same,Median Tumour Volume,"[4]; days 0, 7 and 14, day 28","1,203.1 mm^3"
same,Median Tumour Volume,"[4]; days 0, 7 and 14, day 32","1,331.3 mm^3"
same,Median Tumour Volume,"[4]; days 0, 7 and 14, day 35","1,593.1 mm^3"
same,IC50,[5],1.85 nM
same,late apoptotic cells positive for Annexin V and propidium iodide,[6],substantial population of late apoptotic cells
same,IC50,[7],1.16 nM
same,IC50,[8],3.08 nM
same,Median Tumour Volume,"[9]; days 0, 7 and 14, day 0",160.3 mm^3
same,Median Tumour Volume,"[9]; days 0, 7 and 14, day 2",249 mm^3
same,Median Tumour Volume,"[9]; days 0, 7 and 14, day 4",306.8 mm^3
same,Median Tumour Volume,"[9]; days 0, 7 and 14, day 7",378.8 mm^3
same,Median Tumour Volume,"[9]; days 0, 7 and 14, day 9",417.2 mm^3
same,Median Tumour Volume,"[9]; days 0, 7 and 14, day 11",453.7 mm^3
same,Median Tumour Volume,"[9]; days 0, 7 and 14, day 14",490.8 mm^3
same,Median Tumour Volume,"[9]; days 0, 7 and 14, day 16",517.4 mm^3
same,Median Tumour Volume,"[9]; days 0, 7 and 14, day 18",572.1 mm^3
same,Median Tumour Volume,"[9]; days 0, 7 and 14, day 21",666.9 mm^3
same,Median Tumour Volume,"[9]; days 0, 7 and 14, day 23",703.5 mm^3
same,Median Tumour Volume,"[9]; days 0, 7 and 14, day 25",739.3 mm^3
same,Median Tumour Volume,"[9]; days 0, 7 and 14, day 28",861.2 mm^3
same,Median Tumour Volume,"[9]; days 0, 7 and 14, day 30",986.4 mm^3
same,Median Tumour Volume,"[9]; days 0, 7 and 14, day 35",997.4 mm^3
same,Median Tumour Volume,"[9]; days 0, 7 and 14, day 42",900.1 mm^3
same,Median Tumour Volume,"[9]; days 0, 7 and 14, day 44",982.3 mm^3
same,Median Tumour Volume,"[9]; days 0, 7 and 14, day 46",1080 mm^3
same,Median Tumour Volume,"[9]; days 0, 7 and 14, day 49","1,169.4 mm^3"
same,Median Tumour Volume,"[9]; days 0, 7 and 14, day 53","1,262.1 mm^3"
same,Median Tumour Volume,"[9]; days 0, 7 and 14, day 56","1,521.8 mm^3"
same,melanoma cell proliferation,[10],significant inhibition
same,IC50,[11],0.3 to 4.73 nM
same,IC50,[12],1.44 nM
same,IC50,[13],1.74 nM
same,tumor volume compared to the placebo,[14],reduction of the volume tumor

# From patent publication EP4563149A1, “LURBINECTEDIN, ECUBECTEDIN AND A RELATED COMPOUND FOR USE IN THE TREATMENT OF SKIN CANCERS” (Pharma Mar, S.A., priority 2023, dated 2025)
